Test results taken from patent publication US12145947B2, “Pyrimidine based modulators and uses thereof” (Quanta Therapeutics, Inc., priority 2022, dated 2024).

Legend:
KRAS G12D/RAF1 = target: T1, KRAS G12D/RAF1 (Homo sapiens, UniProt P01116, G12D); experiment: Protein-protein interaction (PPI) HTRF assay KRAS G12D/RAF1; assay type: binding; details: Table 4
T1 construct: His6-MBP (N, cleaved yes); made in house; host or cells: E. coli
How it was run: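 HTRF pairing of His-tagged RAF1 (52-131) plus Tb-cryptate donor with GppNHp-exchanged biotin-RAS (KRAS 1-169 wt/G12D/G12V, NRAS wt) plus streptavidin-d2 acceptor; compound sits 30 min with RAS first, then 1 h RT with RAF1. IC50 derived from 665/615 ratio, untagged RAF1 defining full inhibition.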

[1] = test system: AGS cells (KRAS G12D), phospho-ERK; experiment: pERK In Cell Western (ICW) assay (Method B), AGS cells; assay type: cell-based; details: Homo sapiens, Table 4, pERK, 3 hours, read-out: ICW-AGS
Experimental: pERK ICW is a high throughput screening assay to evaluate the cellular potency of mutant KRAS small molecule inhibitors. KRAS mutant cell lines AGS and GP2D (KRAS^G12D) were purchased from ATCC and maintained respectively in RPMI and DMEM medium supplemented with 10% fetal bovine serum and Penicillin/Streptomycin.
Cells grown in exponential phase were trypsinized, resuspended in fresh media, and viable cells were counted using a cell counter with Trypan Blue (BioRad TC20). Cells were seeded into 384-well plate (Greiner 781091) at density of 5,000 cells/well for AGS and 10,000 cells/well for GP2D and allowed to grow overnight in a 37° C. CO2 incubator. The next day, compounds were dispensed into wells with a ½ log, 10-point serial dilution and top concentration of […] using Tecan D300e dispenser and incubated for 3 hours in a 37° C. CO2 incubator. Cells were then fixed with paraformaldehyde (Electron Microscopy Sciences, 15710, 4% final concentration) for 30 min, permeabilized with wash buffer (1×PBS+0.1% Triton X-100) for 30 min and blocked with Odyssey blocking buffer (Li—COR 927-70001) for 1 hour, all at room temperature (RT). Phospho-ERK antibody (CST 4370L) was diluted 1:500 in Odyssey blocking+0.2% Tween 20 and incubated with cells overnight at 4° C. The next day, plates were washed 5× with wash buffer, incubated with IRDye 800 CW, Goat anti-Rabbit secondary antibody (Li—COR 926-32211, 1:500) and DRAQ5 (CST 4084L, 1:5,000) diluted in Odyssey blocking+0.2% Tween 20 for 1 hour, washed 5×, and imaged on an Odyssey CLx imaging system.
For data analysis, signal intensities from 800 (phosphor-ERK) and 700 (DRAQ5) channels were extracted, and phospho-ERK signals were normalized to DRAQ5 signals for each well and percent of DMSO control values were computed. Data were then imported into Graphpad Prism to compute half-maximal inhibitory concentrations (IC50) using a 4-parameter variable slope model. Z-factor for each plate was computed from signals derived from wells treated with either DMSO or […] of Trametinib. AGS pERK ICW (Method B) IC50 (uM) values of selected compounds are depicted in Table 2 with compounds having a value 0.001 uM to 0.01 uM as ++++; >0.01 uM to 0.1 uM as +++; >0.1 uM to 1 uM as ++; 1 uM to 10 uM as + and >10 uM as NA.

[2] = test system: GP2D cells (KRAS G12D), phospho-ERK; experiment: pERK In Cell Western (ICW) assay, GP2D cells; assay type: cell-based; details: Table 4, 3 hours
How it was run: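 GP2D (10,000 cells/well) and AGS (5,000 cells/well) cells were treated for 3 h at 37 °C with a 10-point, ½-log dilution series (top […]). They were then fixed and immunostained for phospho-ERK. pERK signal was normalised to DRAQ5 and expressed as % of DMSO, with IC50 from a 4-parameter fit.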

T1 sequence (P01116 with tags, fused parts or gaps isoform P01116-2 G12D): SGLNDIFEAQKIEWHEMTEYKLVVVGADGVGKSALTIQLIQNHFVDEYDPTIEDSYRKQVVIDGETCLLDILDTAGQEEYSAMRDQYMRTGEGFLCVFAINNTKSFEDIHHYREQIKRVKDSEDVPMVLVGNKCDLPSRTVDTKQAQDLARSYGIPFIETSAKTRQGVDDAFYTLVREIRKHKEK

| SMILES | IC50 (KRAS G12D/RAF1) [nM] | IC50 [1] [nM] | IC50 [2] [nM] |
| --- | --- | --- | --- |
| Cn1c(-c2cc3n(n2)CCCN(c2nc(OC[C@@]45CCCN4C[C@H](F)C5)nc(N4CC5(CCc6sc(N)c(C#N)c65)C4)c2C#N)C3)nc2ccccc21 [Compound 29, 2-amino-1′-[5-cyano-6-[2-(1-methylbenzimidazol-2-yl)-4,6,7,8-tetrahydropyrazolo[1,5-a][1,4]diazepin-5-yl]-2-[[(2R,8S)-2-fluoro-1,2,3,5,6,7-hexahydropyrrolizin-8-yl]methoxy]pyrimidin-4-yl]spiro[5,6-dihydrocyclopenta[b]thiophene-4,3′-azetidine]-3-carbonitrile] | 10000 to 100000 | 1000 to 10000 | 100 to 1000 |
| Cn1c(-c2nn3c(c2Cl)CN(c2nc(OC[C@@]45CCCN4C[C@H](F)C5)nc(N4CC5(CCc6sc(N)c(C#N)c65)C4)c2C#N)CCC3)nc2ccccc21 [Compound 30] | 10000 to 100000 | 100 to 1000 | 10 to 100 |
| Cn1c(-c2nn3c(c2Cl)CN(c2nc(OC[C@@]45CCCN4C[C@H](F)C5)nc(N4CC5(CCc6sc(N)c(C#N)c65)C4)c2C#N)CCC3)nc2c(F)cccc21 [Compound 32, 2-amino-1′-[6-[3-chloro-2-(4-fluoro-1-methyl-benzimidazol-2-yl)-4,6,7,8-tetrahydropyrazolo[1,5-a][1,4]diazepin-5-yl]-5-cyano-2-[[(2R,8S)-2-fluoro-1,2,3,5,6,7-hexahydropyrrolizin-8-yl]methoxy]pyrimidin-4-yl]spiro[5,6-dihydrocyclopenta[b]thiophene-4,3′-azetidine]-3-carbonitrile] | 10000 to 100000 | 100 to 1000 | 10 to 100 |
| N#Cc1c(N2CCCC(C#N)CC2)nc(OC[C@@]23CCCN2C[C@H](F)C3)nc1N1CC2(CCc3sc(N)c(C#N)c32)C1 (stereo partly drawn) [Compound 33, 2-amino-1′-[5-cyano-6-(4-cyanoazepan-1-yl)-2-[[(2R,8S)-2-fluoro-1,2,3,5,6,7-hexahydropyrrolizin-8-yl]methoxy]pyrimidin-4-yl]spiro[5,6-dihydrocyclopenta[b]thiophene-4,3′-azetidine]-3-carbonitrile] | 1000 to 10000 | 1000 to 10000 | 100 to 1000 |
| N#Cc1c(N2C[C@H]3CC[C@@H](C2)N3)nc(OCC2(CN3CCC(F)(F)CC3)CC2)nc1N1CC2(CCc3sc(N)c(C#N)c32)C1 [Compound 34, 2-amino-1′-[5-cyano-6-(3,8-diazabicyclo[3.2.1]octan-3-yl)-2-[[1-[(4,4-difluoro-1-piperidyl)methyl]cyclopropyl]methoxy]pyrimidin-4-yl]spiro[5,6-dihydrocyclopenta[b]thiophene-4,3′-azetidine]-3-carbonitrile] | 100 to 1000 | 10 to 100 | 1 to 10 |
| N#Cc1c(N2C[C@H]3CC[C@@H](C2)N3)nc(OCC2(CN3CCOCC3)CC2)nc1N1CC2(CCCc3sc(N)c(C#N)c32)C1 [Compound 41, 2-amino-1′-[5-cyano-2-[[1-(morpholinomethyl)cyclopropyl]methoxy]-6-[(1R,5S)-3,8-diazabicyclo[3.2.1]octan-3-yl]pyrimidin-4-yl]spiro[6,7-dihydro-5H-benzothiophene-4,3′-azetidine]-3-carbonitrile] | 100 to 1000 | 10 to 100 | 1 to 10 |
| N#Cc1c(N2C[C@H]3COC[C@@H](C2)N3)nc(OCC2(CN3CCOCC3)CC2)nc1N1CC2(CCc3sc(N)c(C#N)c32)C1 [Compound 42, 2-amino-1′-[5-cyano-2-[[1-(morpholinomethyl)cyclopropyl]methoxy]-6-(3-oxa-7,9-diazabicyclo[3.3.1]nonan-7-yl)pyrimidin-4-yl]spiro[5,6-dihydrocyclopenta[b]thiophene-4,3′-azetidine]-3-carbonitrile] | 1000 to 10000 | 100 to 1000 | 100 to 1000 |
| CC1CC2(CN(c3nc(OCC4(CN5CCOCC5)CC4)nc(N4C[C@H]5CC[C@@H](C4)N5)c3C#N)C2)c2c1sc(N)c2C#N (stereo partly drawn) [Compound 45, 2-amino-1-[5-cyano-2-[[1-(morpholinomethyl)cyclopropyl]methoxy]-6-[(1R,5S)-3,8-diazabicyclo[3.2.1]octan-3-yl]pyrimidin-4-yl]-6-methyl-spiro[5,6-dihydrocyclopenta[b]thiophene-4,3′-azetidine]-3-carbonitrile] | 100 to 1000 | 10 to 100 | 1 to 10 |
| Cc1nc(-c2nn3c(c2Cl)CN(c2nc(OC[C@@]45CCCN4C[C@H](F)C5)nc(N4CC5(CCc6sc(N)c(C#N)c65)C4)c2C#N)CCC3)no1 [Compound 46, 2-amino-1′-[6-[3-chloro-2-(5-methyl-1,2,4-oxadiazol-3-yl)-4,6,7,8-tetrahydropyrazolo[1,5-a][1,4]diazepin-5-yl]-5-cyano-2-[[(2R,8S)-2-fluoro-1,2,3,5,6,7-hexahydropyrrolizin-8-yl]methoxy]pyrimidin-4-yl]spiro[5,6-dihydrocyclopenta[b]thiophene-4,3′-azetidine]-3-carbonitrile] | 1000 to 10000 | 100 to 1000 | 10 to 100 |
| CN(C)C1(COc2nc(N3C[C@H]4CC[C@@H](C3)N4)c(C#N)c(N3CC4(CCc5sc(N)c(C#N)c54)C3)n2)CC1 [Compound 47, 2-amino-1′-[5-cyano-6-[(1R,5S)-3,8-diazabicyclo[3.2.1]octan-3-yl]-2-[[1-(dimethylamino)cyclopropyl]methoxy]pyrimidin-4-yl]spiro[5,6-dihydrocyclopenta[b]thiophene-4,3′-azetidine]-3-carbonitrile] | 10000 to 100000 | 100 to 1000 | 10 to 100 |
| CN(CCOc1nc(N2C[C@H]3CC[C@@H](C2)N3)c(C#N)c(N2CC3(CCc4sc(N)c(C#N)c43)C2)n1)C1CCC1 [Compound 48, 2-amino-1′-[5-cyano-2-[2-[cyclobutyl(methyl)amino]ethoxy]-6-[(1R,5S)-3,8-diazabicyclo[3.2.1]octan-3-yl]pyrimidin-4-yl]spiro[5,6-dihydrocyclopenta[b]thiophene-4,3′-azetidine]-3-carbonitrile] | 10000 to 100000 | 1000 to 10000 | 100 to 1000 |
| CN(C)CC1(COc2nc(N3C[C@H]4CC[C@@H](C3)N4)c(C#N)c(N3CC4(CCc5sc(N)c(C#N)c54)C3)n2)COC1 [Compound 52, 2-amino-1′-[5-cyano-6-[(1R,5S)-3,8-diazabicyclo[3.2.1]octan-3-yl]-2-[[3-[(dimethylamino)methyl]oxetan-3-yl]methoxy]pyrimidin-4-yl]spiro[5,6-dihydrocyclopenta[b]thiophene-4,3′-azetidine]-3-carbonitrile] | 100 to 1000 | 100 to 1000 | 1 to 10 |
| N#Cc1c(N2CCCn3nc(C(=O)C4CC4)c(Cl)c3C2)nc(OC[C@@]23CCCN2C[C@H](F)C3)nc1N1CC2(CCc3sc(N)c(C#N)c32)C1 [Compound 62, 2-amino-1′-[6-[3-chloro-2-(cyclopropanecarbonyl)-4,6,7,8-tetrahydropyrazolo[1,5-a][1,4]diazepin-5-yl]-5-cyano-2-[[(2R,8S)-2-fluoro-1,2,3,5,6,7-hexahydropyrrolizin-8-yl]methoxy]pyrimidin-4-yl]spiro[5,6-dihydrocyclopenta[b]thiophene-4,3′-azetidine]-3-carbonitrile] | 10000 to 100000 | 10 to 100 | 10 to 100 |
| N#Cc1c(N2C[C@H]3CC[C@@H](C2)N3)nc(OCC2(CN3CCOCC3)CC2)nc1N1CC2(CCCCc3sc(N)c(C#N)c32)C1 [Compound 70, 2-amino-1′-[5-cyano-2-[[1-(morpholinomethyl)cyclopropyl]methoxy]-6-[(1R,5S)-3,8-diazabicyclo[3.2.1]octan-3-yl]pyrimidin-4-yl]spiro[5,6,7,8-tetrahydrocyclohepta[b]thiophene-4,3′-azetidine]-3-carbonitrile] | 100 to 1000 | 10 to 100 | 10 to 100 |
